# Publication PMC5656836, “Distinct activation mechanisms trigger the trypanocidal activity of DNA damaging prodrugs” (Molecular Microbiology, 2017)
# Read-outs that look alike come from different tables or passages of the source.
# Experiments:
# [1] = test system: L. major promastigotes; test: Growth inhibition of L. major promastigotes (resazurin); assay type: cell-based; settings: for EC50: Leishmania major, 144 h, read-out: L. major EC50
# [2] = test system: T. cruzi epimastigotes; test: Growth inhibition of T. cruzi epimastigotes (resazurin); assay type: cell-based; settings: for EC50: read-out: T. cruzi EC50
# [3] = test system: bloodstream form T. brucei; test: Growth inhibition of wild type / control bloodstream form T. brucei (resazurin); assay type: cell-based; settings: for EC50: Trypanosoma brucei
# [4] = test system: RH1^RC1 T. brucei; test: microbe, parasite or virus in culture; assay type: cell-based; settings: for EC50: Trypanosoma brucei, read-out: EC50 RH1^RC1;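 on ratio (fold difference in EC50 between RH1^RC1 and wild type): resistant clone selected by stepwise exposure to the aziridinyl benzoquinone prodrug in culture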
# [5] = test system: T. brucei Tbsnm1 null mutants (ΔTbsnm1); test: microbe, parasite or virus in culture; assay type: cell-based; settings: for EC50: Trypanosoma brucei, read-out: EC50 ΔTbsnm1
# [6] = test system: mouse peritoneal macrophages; test: Toxicity to mouse peritoneal macrophages (cell counts, Giemsa); assay type: cell-based, BALB/c mice; settings: Peritoneal macrophage, 120 h, read-out: EC50 towards mouse peritoneal macrophages
# [7] = test system: T. brucei over expressing TbNTR (Tbntr++); test: microbe, parasite or virus in culture; assay type: cell-based; settings: for EC50: Trypanosoma brucei, read-out: EC50 Tbntr++
# [8] = test system: differentiated THP‐1 cells; test: Mammalian inhibition assay, differentiated THP-1 cells; assay type: cell-based; settings: Homo sapiens, read-out: THP‐1 EC50
# [9] = test system: T. brucei over expressing TbCPR2 (Tbcpr2++); test: microbe, parasite or virus in culture; assay type: cell-based
# [10] = Trypanosoma cruzi, 336 h, epimastigotes, 14 days
# [11] = 72 h, bloodstream form, 3 days, Table 1, activity of some compounds previously reported (Hall et al., 2012), read-out: T. brucei EC50
smiles,measurement,setting,value
CC(C)NC1=C(N2CC2)C(=O)C(NC(C)C)=C(N2CC2)C1=O [ABQ13],EC50,[1],> 10 µM
same,EC50,"[2]; Trypanosoma cruzi, 336 h",5.55 ± 0.24 µM
same,EC50,"[3]; 72 h, read-out: T. brucei EC50",> 10 µM
CC1CCC(NC(=O)N(CCCl)N=O)CC1 (centres unmarked) [Semustine],ratio (fold difference in EC50 between RH1^RC1 and wild type),[4],1.1
same,EC50,[4],17.1 ± 3.62 µM
same,EC50,[3]; read-out: EC50 Wild type,15 ± 3.46 µM
CC1CN1C1=C(Cl)C(=O)C(N2CC2C)=C(Cl)C1=O (centres unmarked) [ABQ27],EC50,"[1]; promastigotes, 6 days",0.21 ± 0.01 µM
same,EC50,[2]; [10],0.62 ± 0.18 µM
same,EC50,[3]; [11],> 10 µM
CCC(=O)NC1=C(N2CC2C)C(=O)C(NC(=O)CC)=C(N2CC2C)C1=O (centres unmarked) [ABQ33],EC50,[1],8.157 ± 0.08 µM
same,EC50,"[2]; Trypanosoma cruzi, 336 h",> 10 µM
same,EC50,"[3]; 72 h, read-out: T. brucei EC50",> 10 µM
"S=P(N1CC1)(N1CC1)N1CC1 [ThioTEPA, reference compound]",EC50,[4],56.3 ± 1.96 µM
same,EC50,[3]; read-out: EC50 Wild type,39.4 ± 0.796 µM
O=C1C=C(N2CC2)C(=O)C=C1N1CC1 [DZQ],Ratio of EC50 values ΔTbsnm1 / control,[5],0.27
same,EC50,[5],0.043 ± 0.002 µM
same,L. major EC50,[1],high potency
same,L. major SI,[1],3
same,EC50,[1],0.06 ± 0.001 µM
same,EC50,[6],0.255 µM
same,T. cruzi SI,[2],36
same,EC50,"[2]; Trypanosoma cruzi, 336 h",< 0.01 µM
same,EC50,[2],0.005 ± 0.001 µM
same,Fold difference in EC50 Tbntr++ relative to control,[7],90 ± 3 (0.28 )
same,EC50,[7],0.09 µM
same,T. brucei SI,[3],1
same,EC50,"[3]; 72 h, read-out: T. brucei EC50",0.272 ± 0.001 µM
same,EC50,"[8]; THP-1, 72 h",0.181 ± 0.005 µM
C[C@H]1CN1C1=CC(=O)C(N2C[C@@H]2C)=CC1=O [ABQ24],Ratio of EC50 values ΔTbsnm1 / control,[5],0.77
same,Susceptibility of Tbsnm1 null mutants relative to wild type / control (fold more susceptible),[5],no significant difference
same,EC50,[5],1.13 ± 0.1 µM
same,L. major SI,[1],<1
same,EC50,"[1]; promastigotes, 6 days",0.473 ± 0.123 µM
same,T. cruzi SI,[2],<11
same,EC50,[2]; [10],0.037 ± 0.001 µM
same,Fold difference in EC50 Tbntr++ relative to control,[7],2090 ± 160 (1.42)
same,EC50,[7],2.09 µM
same,T. brucei SI,[3]; Selectivity Index: fold difference in EC50 of THP‐1 line relative to parasite,<1
same,EC50,[3]; [11],1.47 ± 0.12 µM
same,EC50,"[3]; Table 2, parasites expressing wild type levels, read-out: EC50 Control",1.47 ± 0.12 µM
same,EC50,"[3]; Table 4, wild type T. brucei, read-out: EC50 Control",1.47 ± 0.12 µM
same,EC50,"[8]; 72 h, differentiated THP‐1 cells, 3 days",< 0.4 µM
same,Fold difference in EC50 Tbcpr2++ relative to control,[9],1698 ± 23 (1.16)
same,EC50,"[9]; Trypanosoma brucei, read-out: EC50 Tbcpr2++",1.7 µM
